# Measurements reported in patent US6495737B1, “Methods and compositions for improving salicylic acid-independent systemic acquired disease resistance in plants” (Rutgers, The State University of New Jersey, priority 1996, dated 2002).
# “Also recorded” adds a separate entry of the source.
# What was measured:
# [1] = system: EH-1 gene; assay: EH-1 gene expression in tobacco suspension cells treated with auxins; assay type: cell-based; settings: 100 μM, hormone-free medium 2 days, 0-12 h
# Protocol: (§1) FIG. 12A: tobacco leaves were injected with water or 1 mM SA, INA or 4HBA. Samples were harvested at the times indicated and total RNA was extracted from treated tissue. Ten μg of RNA was loaded in each lane. FIG. 12B: quantification of EH-1 transcripts corresponding to the data from FIG. 12A. The method of quantification is described in FIG. 9. The experiments were done twice. FIG. 12C: cell cultures were subcultured for 2 days in hormone-free medium to deplete hormones. Water, 2,4-D or IAA were then added to the media at 100 μM. Cells were collected at the times indicated.
# (§2) Cell suspension was treated with auxins as described by Xiang et al (1996). Cell cultures were grown in hormone-free medium for 2 days to deplete hormones in the medium. IAA (100 μM) and 2,4-D (100 μM) were added to the suspension. Cells were harvested at 0, 2, 6 and 12 h after addition of auxins. Water was added to the control.
# (§3) Total RNA was isolated from tobacco tissue by phenol/chloroform as described in Example 1. Ten micrograms of total RNA was analyzed by electrophoresis in a 1.2% agarose gel containing formaldehyde and blotted to Nytran Plus membranes (Schleicher and Schuell). Blots were hybridized with [alpha-^32P]dCTP-labeled probes prepared by the random-priming method with a oligo labelling kit (Pharmacia). […] Following autoradiography, mRNA levels were quantitated using a Phosphorimager (Molecular Dynamics).
# [2] = system: Arabidopsis sEH gene; settings: in vivo; cited from earlier work
# [3] = system: auxin-inducible glutathione S-transferase gene, GNT35; assay: GNT35 gene expression in tobacco suspension cells treated with auxins (positive control); assay type: cell-based; settings: 100 μM, hormone-free medium 2 days
# Protocol: as §1, §2, §3
# [4] = system: fungal pathogen; settings: cited from earlier work; for effectiveness at protecting / inducing resistance to fungal infection in barley: highly susceptible barley cultivar
# [5] = system: potato suspension cells; settings: cited from earlier work
# [6] = system: seven groups of SIS genes (ACCO, ACCD, HMGR, APX, PR-3, SAR8.2, PAR-1); assay: Northern analysis of SIS gene expression in tobacco leaves injected with chemicals; assay type: in vivo, Nicotiana tabacum cv. Xanthi nc; settings: 1 mM injected into leaf
# Protocol: (§4) One leaf on each plant was injected with water, 1 mM of SA, INA or 4-hydroxybenzoic acid (4HBA). At the times indicated, injected leaves from two similarly treated plants (˜5 g tissue) were harvested and total RNA was extracted. Ten μg of RNA was loaded in each lane. The experiment with all ten probes was done twice.
# Tobacco (Nicotiana tabacum cv. Xanthi nc) plants and NahG-10 seeds, kindly provided by John Ryals at Novartis, Research Triangle, NC, were grown at 20° C. in a growth room with a 14-h day cycle. Two upper, fully expanded leaves of 6-8 week-old plants were infected with TMV strain U1 at a concentration of 1 μg/ml in 50 mM phosphate buffer (pH 7.2) containing carborundum. Control plants were treated with phosphate buffer and carborundum only. Inoculated plants were maintained in a 22° C. growth chamber until harvesting. In temperature shift experiments, plants were immediately put into a 32° C. growth chamber after infection with TMV. After a 48 h incubation period, the temperature was shifted from 32° C. to 22° C.
# (§5) SA and its analog 4-hydroxybenzoic acid were purchased from Sigma. INA was provided by Uwe Conrath and Heinrich Kauss at Universitat Kaiserslautern, Germany. All chemicals were dissolved in water and adjusted a pH of 6.5 with NaOH. They were injected into plants at a concentration of 1 mM. Control plants were injected with distilled water.
# (§6) Infected leaves were harvested and frozen in liquid nitrogen and stored at −80° C. until RNA extraction. Total RNA was extracted by phenol/chloroform essentially as described by Berry et al. (1985) with some modifications on the extraction buffer (50 mM Tris.HCl, pH8.0, 20 mM EDTA, 100 mM NaCl, and 2% SDS). For RNA blots, 10 μg of total RNA was loaded in each lane. RNA was separated on 1.2% agarose gels containing 18% formaldehyde and transferred to a Nytran Plus membrane (Schleicher and Schuell, Inc., Keene, N.H.). RNA was fixed to the membrane by cross-linking with UV light and then baked at 80° C. for 2 h. Prehybridization and hybridization were performed at 60° C. in 0.5M phosphate buffer (pH 7.2), containing 1% BSA, 7% SDS, and 1 mM EDTA (Church and Gilbert, 1984). The membranes were washed twice in 2×SSC at room temperature for 10 min each, twice in 2×SSC containing 0.5% SDS at 65° C. for 30 min, and twice in 0.1×SSC at room temperature for 30 min each. The probes were prepared from linearized DNA fragments and labeled with ^32p using the random-prime labeling method (Feinberg and Vogelstein, 1984). The PR-1a DNA clone was previously isolated in our lab and the tobacco PAL DNA clone was kindly provided by Michel Legrand and Bernard Fritig, Centre National de la Recherche Scientifique, Strasbourg, France.
# [7] = system: PR-1 genes; assay: Northern analysis of PR-1 gene expression in tobacco leaves injected with chemicals; assay type: in vivo, Nicotiana tabacum cv. Xanthi nc; settings: for induction of PR-1 genes (in words): exogenous treatment of tobacco
# Protocol: as §4, §5, §6
# (§7) 2,4-D, […], and its analog 4HBA were purchased from Sigma. IAA was purchased from GIBCO BRL. INA was provided by Uwe Conrath at Universitat Kaiserslautern, Germany. SA, 4HBA and INA were dissolved in water and adjusted to […] pH of 6.5. They were injected into plants at a concentration of 1 mM with a needle-less syringe. Control plants were injected with distilled water. IAA and 2,4-D was dissolved in 0.2% ethanol.
# as §3, with “Schuell).” for “Schuell). Blots were hybridized with [alpha-^32P]dCTP-labeled probes prepared by the random-priming method with a oligo labelling kit (Pharmacia).”
# [8] = system: PAL genes; assay: Northern analysis of PAL gene expression in tobacco leaves injected with chemicals; assay type: in vivo, Nicotiana tabacum cv. Xanthi nc; settings: 1 mM injected into leaf
# Protocol: as §4, §5
# Infected leaves were harvested and frozen in liquid nitrogen and stored at −80° C. until RNA extraction. Total RNA was extracted by phenol/chloroform essentially as described by Berry et al. (1985) with some modifications on the extraction buffer (50 mM Tris.HCl, pH8.0, 20 mM EDTA, 100 mM NaCl, and 2% SDS). For RNA blots, 10 μg of total RNA was loaded in each lane. RNA was separated on 1.2% agarose gels containing 18% formaldehyde and transferred to a Nytran Plus membrane (Schleicher and Schuell, Inc., Keene, N.H.). RNA was fixed to the membrane by cross-linking with UV light and then baked at 80° C. for 2 h. […]
# [9] = system: EH-1 gene; assay: EH-1 gene expression in tobacco leaves injected with chemicals; assay type: in vivo, Nicotiana tabacum; settings: 1 mM injected into leaf
# Protocol: as §1, §7
# as §3, with “Schuell).” for “Schuell). Blots were hybridized with [alpha-^32P]dCTP-labeled probes prepared by the random-priming method with a oligo labelling kit (Pharmacia).”
smiles,measurement,setting,value
"O=C(O)COc1ccc(Cl)cc1Cl [2,4-D, 2,4-dichlorophenoxy acetic acid]",induction of EH-1 expression (in words),[1],Little or no induction
same,induction of Arabidopsis sEH gene,[2],induced by auxins
same,induction of GNT35 expression (in words),[3],rapidly induced
"O=C(O)CCCCCCCC(O)C(O)CCCCCCCCO (stereo not shown) [9,10,18-trihydroxystearic acid]",effectiveness at protecting / inducing resistance to fungal infection in barley,[4],nearly as effective
same,toxicity relative to HESA,[4]; in vivo,less toxic than HESA
same,alkalinization of media,[5],to a lesser extent than HESA
"O=C(O)c1ccc(O)cc1 [4HBA, 4-hydroxybenzoic acid]",activation of the seven groups of SIS genes (in words),[6],failed to activate these genes
"O=C(O)c1cc(Cl)nc(Cl)c1 [INA, 2,6-dichloroisonicotinic acid]",induction of PR-1 genes (in words),[7],slow and sustained
same,activation of the seven groups of SIS genes (in words),[6],"induced by INA, generally in a transient manner; also recorded: rapid and transient activation of six of the seven groups"
same,induction of PAL gene expression (in words),[8],neither SA nor INA can induce PAL gene expression
same,EH-1 transcript accumulation (in words),[9],induced a transient accumulation of EH-1 transcripts; also recorded: accumulate rapidly and transiently
"O=C(O)Cc1c[nH]c2ccccc12 [IAA, indole-3-acetic acid]",induction of EH-1 expression (in words),[1],Little or no induction
same,induction of Arabidopsis sEH gene,[2],induced by auxins
same,induction of GNT35 expression (in words),[3],rapidly induced
"O=C(O)c1ccccc1O [SA, salicylic acid]",time post treatment at which PR-1 mRNAs were first detected,"[7]; 1 mM injected into leaf, Example 1",12 h
same,time post treatment at which PR-1 transcripts were first detected,"[7]; 1 mM injected into leaf, Example 2",12 h
same,induction of PR-1 genes (in words),[7],slow and sustained
same,activation of the seven groups of SIS genes (in words),[6],induced their expression transiently; also recorded: rapid and transient activation of six of the seven groups
same,time post treatment by which SIS mRNA levels had declined,[6],≤ 24 h
same,time post treatment by which mRNA levels for all SIS genes had peaked,[6],≤ 12 h
same,time after injection by which six of the seven groups of SIS genes were induced,[6]; Northern blot,4 to 6 h
same,time after treatment at which increased expression of PAR-1 was detected,[6]; this experiment,12 h
same,induction of PAL gene expression (in words),[8],"little, if any, induction of PAL; also recorded: neither SA nor INA can induce PAL gene expression"
"O=C(O)CCCCCCCC1OC1CCCCCCCCO (stereo not drawn) [HESA, cis-9,10-epoxy-18-hydroxystearic acid]",effectiveness at protecting / inducing resistance to fungal infection in barley,[4],most effective
same,alkalinization of media,[5],caused the rapid alkalinization
